According to patent US20250042876A1, “HERBICIDAL PYRAZOLE PYRIMIDINE COMPOUNDS” (SYNGENTA CROP PROTECTION AG, priority 2021, published 2025):

Experiments:
Format in all cases: in vivo
Settings in all cases: 250 g/ha, evaluated after 13 days
[1] = test system: Echinochloa crus-galli (ECHCG); assay: Post-emergence herbicidal test, glasshouse
Method: (§1) Seeds of a variety of test species are sown in standard soil in pots Amaranthus palmeri (AMAPA), Amaranthus retoflexus (AMARE), Setaria faberi (SETFA), Echinochloa crus-galli (ECHCG), Ipomoea hederacea (IPOHE)). After cultivation for one day (pre-emergence) or after 8 days cultivation (post-emergence) under controlled conditions in a glasshouse (at 24/16° C., day/night; 14 hours light; 65% humidity), the plants are sprayed with an aqueous spray solution derived from the formulation of the technical active ingredient in acetone/water (50:50) solution containing 0.5% Tween 20 (polyoxyethelyene sorbitan monolaurate, CAS RN 9005-64-5). Compounds are applied at 250 g/ha unless otherwise stated. The test plants are then grown in a glasshouse under controlled conditions in a glasshouse (at 24/16° C., day/night; 14 hours light; 65% humidity) and watered twice daily. After 13 days for pre and post-emergence, the test is evaluated for the percentage damage caused to the plant. The biological activities are shown in the following table on a five-point scale (5=81-100%; 4=61-80%; 3=41-60%; 2=21-40%; 1=0-20%).

[2] = test system: Amaranthus retoflexus (AMARE); assay: Post-emergence herbicidal test, glasshouse
Method: as §1

[3] = test system: Amaranthus palmeri (AMAPA); assay: Post-emergence herbicidal test, glasshouse
Method: as §1

[4] = test system: Ipomoea hederacea (IPOHE); assay: Post-emergence herbicidal test, glasshouse
Method: as §1

[5] = test system: Echinochloa crus-galli (ECHCG); assay: Pre-emergence herbicidal test, glasshouse
Method: as §1

[6] = test system: Amaranthus retoflexus (AMARE); assay: Pre-emergence herbicidal test, glasshouse
Method: as §1

[7] = test system: Amaranthus palmeri (AMAPA); assay: Pre-emergence herbicidal test, glasshouse
Method: as §1

[8] = test system: Ipomoea hederacea (IPOHE); assay: Pre-emergence herbicidal test, glasshouse
Method: as §1

FC(F)(F)c1cc(Cc2ncc(Cl)cn2)n(-c2ccc(Cl)nc2)n1 [Compound 1.009]
ECHCG percentage damage caused to the plant (five-point scale) [1]: 5 (5=81-100%)
AMARE percentage damage caused to the plant (five-point scale) [2]: 5 (5=81-100%)
AMAPA percentage damage caused to the plant (five-point scale) [3]: 5 (5=81-100%)
IPOHE percentage damage caused to the plant (five-point scale) [4]: 4 (4=61-80%)
ECHCG percentage damage caused to the plant (five-point scale) [5]: 5 (5=81-100%)
AMARE percentage damage caused to the plant (five-point scale) [6]: 5 (5=81-100%)
AMAPA percentage damage caused to the plant (five-point scale) [7]: 5 (5=81-100%)
IPOHE percentage damage caused to the plant (five-point scale) [8]: 5 (5=81-100%)

N#Cc1ccc(-n2nc(C#N)cc2Cc2ncc(Cl)cn2)cn1 [Compound 1.019]
ECHCG percentage damage caused to the plant (five-point scale) [1]: 4 (4=61-80%)
AMARE percentage damage caused to the plant (five-point scale) [2]: 5 (5=81-100%)
AMAPA percentage damage caused to the plant (five-point scale) [3]: 5 (5=81-100%)
IPOHE percentage damage caused to the plant (five-point scale) [4]: 3 (3=41-60%)
ECHCG percentage damage caused to the plant (five-point scale) [5]: 4 (4=61-80%)
AMARE percentage damage caused to the plant (five-point scale) [6]: 5 (5=81-100%)
AMAPA percentage damage caused to the plant (five-point scale) [7]: 5 (5=81-100%)
IPOHE percentage damage caused to the plant (five-point scale) [8]: 5 (5=81-100%)

N#Cc1cc(Cc2ncc(Cl)cn2)n(-c2ccc(Cl)nc2)n1 [Compound 1.020]
ECHCG percentage damage caused to the plant (five-point scale) [1]: 5 (5=81-100%)
AMARE percentage damage caused to the plant (five-point scale) [2]: 5 (5=81-100%)
AMAPA percentage damage caused to the plant (five-point scale) [3]: 5 (5=81-100%)
IPOHE percentage damage caused to the plant (five-point scale) [4]: 4 (4=61-80%)
ECHCG percentage damage caused to the plant (five-point scale) [5]: 5 (5=81-100%)
AMARE percentage damage caused to the plant (five-point scale) [6]: 5 (5=81-100%)
AMAPA percentage damage caused to the plant (five-point scale) [7]: 5 (5=81-100%)
IPOHE percentage damage caused to the plant (five-point scale) [8]: 5 (5=81-100%)

Clc1cnc(Cc2cc(I)nn2-c2ccc(Cl)nc2)nc1 [Compound 1.021]
ECHCG percentage damage caused to the plant (five-point scale) [1]: 5 (5=81-100%)
AMARE percentage damage caused to the plant (five-point scale) [2]: 5 (5=81-100%)
AMAPA percentage damage caused to the plant (five-point scale) [3]: 5 (5=81-100%)
IPOHE percentage damage caused to the plant (five-point scale) [4]: 4 (4=61-80%)
ECHCG percentage damage caused to the plant (five-point scale) [5]: 5 (5=81-100%)
AMARE percentage damage caused to the plant (five-point scale) [6]: 5 (5=81-100%)
AMAPA percentage damage caused to the plant (five-point scale) [7]: 5 (5=81-100%)
IPOHE percentage damage caused to the plant (five-point scale) [8]: 5 (5=81-100%)

FC(F)(Cl)c1cc(Cc2ncc(Cl)cn2)n(-c2ccc(Cl)nc2)n1 [Compound 1.022]
ECHCG percentage damage caused to the plant (five-point scale) [1]: 5 (5=81-100%)
AMARE percentage damage caused to the plant (five-point scale) [2]: 5 (5=81-100%)
AMAPA percentage damage caused to the plant (five-point scale) [3]: 5 (5=81-100%)
IPOHE percentage damage caused to the plant (five-point scale) [4]: 3 (3=41-60%)
ECHCG percentage damage caused to the plant (five-point scale) [5]: 5 (5=81-100%)
AMARE percentage damage caused to the plant (five-point scale) [6]: 5 (5=81-100%)
AMAPA percentage damage caused to the plant (five-point scale) [7]: 5 (5=81-100%)
IPOHE percentage damage caused to the plant (five-point scale) [8]: 5 (5=81-100%)

FC(F)(Cl)c1cc(Cc2ncc(Cl)cn2)n(-c2cnc(Cl)c(Cl)c2)n1 [Compound 1.023]
ECHCG percentage damage caused to the plant (five-point scale) [1]: 4 (4=61-80%)
AMARE percentage damage caused to the plant (five-point scale) [2]: 5 (5=81-100%)
AMAPA percentage damage caused to the plant (five-point scale) [3]: 5 (5=81-100%)
IPOHE percentage damage caused to the plant (five-point scale) [4]: 3 (3=41-60%)
ECHCG percentage damage caused to the plant (five-point scale) [5]: 5 (5=81-100%)
AMARE percentage damage caused to the plant (five-point scale) [6]: 5 (5=81-100%)
AMAPA percentage damage caused to the plant (five-point scale) [7]: 5 (5=81-100%)
IPOHE percentage damage caused to the plant (five-point scale) [8]: 5 (5=81-100%)

Fc1ccc(-n2nc(C(F)(F)Cl)cc2Cc2ncc(Cl)cn2)cc1F [Compound 1.024]
ECHCG percentage damage caused to the plant (five-point scale) [1]: 5 (5=81-100%)
AMARE percentage damage caused to the plant (five-point scale) [2]: 5 (5=81-100%)
AMAPA percentage damage caused to the plant (five-point scale) [3]: 5 (5=81-100%)
IPOHE percentage damage caused to the plant (five-point scale) [4]: 4 (4=61-80%)
ECHCG percentage damage caused to the plant (five-point scale) [5]: 5 (5=81-100%)
AMARE percentage damage caused to the plant (five-point scale) [6]: 5 (5=81-100%)
AMAPA percentage damage caused to the plant (five-point scale) [7]: 5 (5=81-100%)
IPOHE percentage damage caused to the plant (five-point scale) [8]: 5 (5=81-100%)

CS(=O)(=O)c1ccc(-n2nc(C(F)F)cc2Cc2ncc(Cl)cn2)cc1 [Compound 1.027]
ECHCG percentage damage caused to the plant (five-point scale) [1]: 5 (5=81-100%)
AMARE percentage damage caused to the plant (five-point scale) [2]: 5 (5=81-100%)
AMAPA percentage damage caused to the plant (five-point scale) [3]: 5 (5=81-100%)
IPOHE percentage damage caused to the plant (five-point scale) [4]: 5 (5=81-100%)
ECHCG percentage damage caused to the plant (five-point scale) [5]: 5 (5=81-100%)
AMARE percentage damage caused to the plant (five-point scale) [6]: 5 (5=81-100%)
AMAPA percentage damage caused to the plant (five-point scale) [7]: 5 (5=81-100%)
IPOHE percentage damage caused to the plant (five-point scale) [8]: 5 (5=81-100%)

N#Cc1ccc(-n2nc(C(F)F)cc2Cc2ncc(Cl)cn2)cc1 [Compound 1.028]
ECHCG percentage damage caused to the plant (five-point scale) [1]: 5 (5=81-100%)
AMARE percentage damage caused to the plant (five-point scale) [2]: 5 (5=81-100%)
AMAPA percentage damage caused to the plant (five-point scale) [3]: 5 (5=81-100%)
IPOHE percentage damage caused to the plant (five-point scale) [4]: 4 (4=61-80%)
ECHCG percentage damage caused to the plant (five-point scale) [5]: 5 (5=81-100%)
AMARE percentage damage caused to the plant (five-point scale) [6]: 5 (5=81-100%)
AMAPA percentage damage caused to the plant (five-point scale) [7]: 5 (5=81-100%)
IPOHE percentage damage caused to the plant (five-point scale) [8]: 5 (5=81-100%)

FC(F)c1cc(Cc2ncc(Cl)cn2)n(-c2ccc(Cl)cc2)n1 [Compound 1.029]
ECHCG percentage damage caused to the plant (five-point scale) [1]: 4 (4=61-80%)
AMARE percentage damage caused to the plant (five-point scale) [2]: 5 (5=81-100%)
AMAPA percentage damage caused to the plant (five-point scale) [3]: 5 (5=81-100%)
IPOHE percentage damage caused to the plant (five-point scale) [4]: 4 (4=61-80%)
ECHCG percentage damage caused to the plant (five-point scale) [5]: 5 (5=81-100%)
AMARE percentage damage caused to the plant (five-point scale) [6]: 5 (5=81-100%)
AMAPA percentage damage caused to the plant (five-point scale) [7]: 5 (5=81-100%)
IPOHE percentage damage caused to the plant (five-point scale) [8]: 5 (5=81-100%)

FC(F)c1cc(Cc2ncc(Cl)cn2)n(-c2cnc(Cl)c(Cl)c2)n1 [Compound 1.030]
ECHCG percentage damage caused to the plant (five-point scale) [1]: 4 (4=61-80%)
AMARE percentage damage caused to the plant (five-point scale) [2]: 5 (5=81-100%)
AMAPA percentage damage caused to the plant (five-point scale) [3]: 5 (5=81-100%)
IPOHE percentage damage caused to the plant (five-point scale) [4]: 4 (4=61-80%)
ECHCG percentage damage caused to the plant (five-point scale) [5]: 5 (5=81-100%)
AMARE percentage damage caused to the plant (five-point scale) [6]: 5 (5=81-100%)
AMAPA percentage damage caused to the plant (five-point scale) [7]: 5 (5=81-100%)
IPOHE percentage damage caused to the plant (five-point scale) [8]: 4 (4=61-80%)

FC(F)c1cc(Cc2ncc(Cl)cn2)n(-c2cccc(Cl)c2)n1 [Compound 1.031]
ECHCG percentage damage caused to the plant (five-point scale) [1]: 4 (4=61-80%)
AMARE percentage damage caused to the plant (five-point scale) [2]: 5 (5=81-100%)
AMAPA percentage damage caused to the plant (five-point scale) [3]: 4 (4=61-80%)
IPOHE percentage damage caused to the plant (five-point scale) [4]: 4 (4=61-80%)
ECHCG percentage damage caused to the plant (five-point scale) [5]: 5 (5=81-100%)
AMARE percentage damage caused to the plant (five-point scale) [6]: 5 (5=81-100%)
AMAPA percentage damage caused to the plant (five-point scale) [7]: 5 (5=81-100%)
IPOHE percentage damage caused to the plant (five-point scale) [8]: 5 (5=81-100%)

Fc1ccc(-n2nc(C(F)F)cc2Cc2ncc(Cl)cn2)cc1F [Compound 1.032, 5-chloro-2-[[5-(difluoromethyl)-2-(3,4-difluorophenyl)pyrazol-3-yl]methyl]pyrimidine]
ECHCG percentage damage caused to the plant (five-point scale) [1]: 4 (4=61-80%)
AMARE percentage damage caused to the plant (five-point scale) [2]: 5 (5=81-100%)
AMAPA percentage damage caused to the plant (five-point scale) [3]: 5 (5=81-100%)
IPOHE percentage damage caused to the plant (five-point scale) [4]: 4 (4=61-80%)
ECHCG percentage damage caused to the plant (five-point scale) [5]: 5 (5=81-100%)
AMARE percentage damage caused to the plant (five-point scale) [6]: 5 (5=81-100%)
AMAPA percentage damage caused to the plant (five-point scale) [7]: 5 (5=81-100%)
IPOHE percentage damage caused to the plant (five-point scale) [8]: 5 (5=81-100%)

Fc1ccc(-n2nc(C(F)F)cc2Cc2ncc(Cl)cn2)cc1 [Compound 1.033]
ECHCG percentage damage caused to the plant (five-point scale) [1]: 4 (4=61-80%)
AMARE percentage damage caused to the plant (five-point scale) [2]: 5 (5=81-100%)
AMAPA percentage damage caused to the plant (five-point scale) [3]: 5 (5=81-100%)
IPOHE percentage damage caused to the plant (five-point scale) [4]: 4 (4=61-80%)
ECHCG percentage damage caused to the plant (five-point scale) [5]: 5 (5=81-100%)
AMARE percentage damage caused to the plant (five-point scale) [6]: 5 (5=81-100%)
AMAPA percentage damage caused to the plant (five-point scale) [7]: 5 (5=81-100%)
IPOHE percentage damage caused to the plant (five-point scale) [8]: 5 (5=81-100%)

FC(F)(F)c1ccc(-n2nc(C(F)(F)F)c(Cl)c2Cc2ncc(Br)cn2)cc1 [Compound 1.034, 5-bromo-2-[[4-chloro-5-(trifluoromethyl)-2-[4-(trifluoromethyl)phenyl]pyrazol-3-yl]methyl]pyrimidine]
ECHCG percentage damage caused to the plant (five-point scale) [1]: 4 (4=61-80%)
AMARE percentage damage caused to the plant (five-point scale) [2]: 4 (4=61-80%)
AMAPA percentage damage caused to the plant (five-point scale) [3]: 5 (5=81-100%)
IPOHE percentage damage caused to the plant (five-point scale) [4]: 4 (4=61-80%)
ECHCG percentage damage caused to the plant (five-point scale) [5]: 5 (5=81-100%)
AMARE percentage damage caused to the plant (five-point scale) [6]: 5 (5=81-100%)
AMAPA percentage damage caused to the plant (five-point scale) [7]: 5 (5=81-100%)
IPOHE percentage damage caused to the plant (five-point scale) [8]: 5 (5=81-100%)
